Test results taken from patent publication US20250376507A1, “NOVEL TUMOR ANTIGEN-TARGETING ANTICANCER AGENT” (INDUSTRY FOUNDATION OF CHONNAM NATIONAL UNIVERSITY, priority 2022, published 2025).

Tests used:
CT-26 cells = experiment: Cell viability (CCK-8) of CT-26 cells; type: cell-based, mouse; conditions: 4 h pretreatment with anticancer agent alone
Protocol: CT-26 and MC-38 cells (10^4 cells per well) were seeded into three wells of a 96-well plate and incubated at 37° C. The next day, the culture medium was replaced with 100 μL of fresh medium containing the above concentrations of anticancer agents. After incubation at 37° C. for 4 h, the culture medium was removed and the cells were washed three times with PBS. […] Finally, CCK-8 reagent (10 μL/well) was added for 3 h at 37° C., and the amount of color in each sample was measured at OD450.

CT-26 tumor = experiment: In vivo anti-cancer efficacy in CT-26 tumor-bearing mice
Protocol: CT-26 and MC-38 tumor cells (106 in 100 μL PBS) were implanted subcutaneously into the right flanks of 6-week-old BALB/c and C57BL/6 female mice (Orient company, Korea), respectively. When the tumors reached about 100 mm^3, the tumor-bearing mice were injected intraperitoneally with anticancer agents (15 mg/kg GEM, 10 mg/kg DOX or 2 mg/kg MTX) three times every 2 days. Simultaneously, the mice were injected intravenously with the PASylated recombinant proteins of the present invention five times every 2 days. The length (L), width (W), and height (H) of each tumor were recorded every 3 days using a digital caliper, and the tumor volume (mm3) was calculated using the following formula (L×H×W)/2. Mice were euthanized when tumors were ˜1,500 mm^3 and all animal experiments were performed in accordance with the general principles and procedures outlined in the National Institutes of Health Guidelines, and all protocols were approved by the Chonnam National University Animal Care and Use Committee (permit number: HCRL 16-001).

For `COc1cccc2c1C(=O)c1c(O)c3c(c(O)c1C2=O)C[C@@](O)(C(=O)CO)C[C@@H]3O[C@H]1C[C@H](N)[C@H](O)[C@H](C)O1` [DOX, doxorubicin, reference compound], the “decrease in cell viability by pretreatment with anticancer agents” value (“decrease in cell viability” for short) (CT-26 cells) was 57.9%, the average tumor weight (CT-26 tumor; day 12, combination with DOX, 8 IU/mouse) was 304.8 mg and the tumor growth (CT-26 tumor; dose-finding study, DOX 10 mg/kg i.p. x3, CRT3LP i.v. x5, n=3) was “grew more slowly than untreated tumors”.
For `Nc1ccn([C@@H]2O[C@H](CO)[C@@H](O)C2(F)F)c(=O)n1` [GEM, gemcitabine, reference compound], the “decrease in cell viability” value (CT-26 cells) was 45.1%.
For `O=C1c2c(O)ccc(O)c2C(=O)c2c(NCCNCCO)ccc(NCCNCCO)c21` [MTX, mitozantrone, reference compound], the “decrease in cell viability” value (CT-26 cells) was 62.3%.
